Results: PubChem BioAssay (NCI)
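Interpolation was linear, between the two tested concentrations surrounding the appropriate level; five concentrations were tested over 48 hours in 96-well plates. GI50: concentration for 50% inhibition of growth. TGI: total growth inhibition.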

Tests used:
Experiment in all cases: NCI tumour cell line growth inhibition, 48 h
[1] = system: SF-268 CNS
[2] = system: HCT-15 colon
[3] = system: UACC-257 melanoma
[4] = system: OVCAR-8 ovarian
[5] = system: HOP-62 NSCLC
[6] = system: SK-OV-3 ovarian
[7] = system: SN12C renal
[8] = system: RPMI-8226 leukemia
[9] = system: A549 NSCLC
[10] = system: HS 578T breast

SMILES	TGI [1]	TGI [2]	TGI [3]	TGI [4]	TGI [5]	TGI [6]	TGI [7]	TGI [8]	TGI [9]	GI50 [9]	GI50 [1]	GI50 [2]	GI50 [4]	GI50 [5]	GI50 [6]	GI50 [8]	GI50 [3]	GI50 [10]	TGI [10]	GI50 [7]
O=C(Nc1ccccc1)O/N=C1/CCCC/C1=C\c1ccccc1	32.8 µM	23.4 µM	35.1 µM	42.8 µM	40.4 µM	35.6 µM	31 µM	52.5 µM												
Nc1ccc(CCN2CCN(c3cccc(C(F)(F)F)c3)CC2)cc1	> 100 µM	> 100 µM	> 100 µM	> 100 µM	> 100 µM	> 100 µM	> 100 µM	> 100 µM	> 100 µM											
N#Cc1c2ccccc2c2nnc3cc(C(F)(F)F)ccc3n12	> 100 µM	> 100 µM		> 100 µM	58.3 µM	> 100 µM		> 100 µM	> 100 µM	36.3 µM	19.2 µM	93.4 µM	68.6 µM	27.6 µM	> 100 µM	55.1 µM				
CCOC(=O)c1[nH]c2cccc3c2c1CC(Br)C3=O (configuration not stated)	32.9 µM	18.8 µM	28.6 µM	41.5 µM	33.6 µM	54.7 µM	30.9 µM	26.7 µM	38.2 µM											
Cc1ccc2c(/C=C/C(=O)c3cc(CN4CCOCC4)c(O)c4nc(C)ccc34)cc(CN3CCOCC3)c(O)c2n1	8.66 µM	3.33 µM	13.6 µM	> 100 µM	11.8 µM		12.4 µM	3.86 µM	15.1 µM	0.38 µM	0.81 µM	0.223 µM	0.588 µM	0.739 µM		0.489 µM	2.62 µM	1.28 µM	> 100 µM	0.683 µM
O=C(c1ccccc1)c1ccc2cccc(O)c2n1	> 100 µM	> 100 µM		71.9 µM	> 100 µM		> 100 µM	> 100 µM	> 100 µM											
COC(=O)C1Cc2c(n(C)c3ccccc23)C(c2ccccc2)N1 (configuration not stated)	> 100 µM	> 100 µM	32 µM	> 100 µM		> 100 µM	> 100 µM	> 100 µM	> 100 µM											
NC(=O)c1csc(C2O[C@@H](COP(=O)(O)OP(=O)(O)OC[C@H]3OC(n4cnc5c(N)ncnc54)[C@H](O)[C@@H]3O)[C@H](O)[C@@H]2O)n1 (some centres not stated)	> 100 µM	> 100 µM	> 100 µM	> 100 µM	> 100 µM	> 100 µM	> 100 µM	> 100 µM	> 100 µM											
COC(=O)/C=C1\SC(=Nc2ccc(C(F)(F)F)cc2)N(CCc2c[nH]c3ccccc23)C1=O	3.67 µM	2.95 µM	3.18 µM	4.6 µM		4.06 µM	3.45 µM	4.3 µM	4.8 µM	2.01 µM	1.78 µM	1.38 µM	1.74 µM		2.05 µM	1.13 µM	1.67 µM			1.69 µM
CC(C)(C)C(=O)Nc1ccccc1Br		> 100 µM	> 100 µM	> 100 µM	> 100 µM	> 100 µM	> 100 µM	> 100 µM	> 100 µM											
COC1CCC2C(=O)CCCC2O1 (configuration not stated)	> 100 µM	> 100 µM	> 100 µM	> 100 µM	> 100 µM	> 100 µM	> 100 µM	> 100 µM	> 100 µM											
COc1ccc(-c2nc3sccn3c2/C=C/C(=O)c2cc(OC)c(OC)c(OC)c2)cc1OC	6.44 µM	> 100 µM	7.17 µM	7.15 µM	6.68 µM	8.07 µM	42.8 µM	4.95 µM	6.03 µM	2.62 µM	2.36 µM	3.24 µM	2.47 µM	2.58 µM	2.9 µM	1.19 µM	2.65 µM			3.06 µM
O=C(Nc1cccc(C2=NCCN2)c1)c1ccc(OCCCOc2ccc(C(=O)Nc3cccc(C4=NCCN4)c3)cc2)cc1		> 100 µM		> 100 µM	> 100 µM	5.41 µM						20.2 µM	4.03 µM	4.45 µM	2.39 µM			2.55 µM	6.6 µM	
COC(=O)C/C(C)=C/[C@@H](O)[C@H]1O[C@@H]2CC/C(Cl)=C/C/C=C(/C)[C@H](OC(C)=O)CC(=O)O[C@@H]1C2	4.61 µM	> 25 µM	7.92 µM	> 25 µM	7.17 µM		7.4 µM	7.24 µM	> 25 µM	10 µM	1.07 µM	8.01 µM	4.73 µM	2.5 µM		1.44 µM	2.92 µM	0.546 µM	2.14 µM	1.01 µM
CCCCCCC(O)C/C=C/CCCCCC/C(C(=O)OC)=C(/O)C(=O)OCC (configuration not stated)	> 100 µM	> 100 µM	> 100 µM	> 100 µM	> 100 µM	> 100 µM	> 100 µM	> 100 µM	> 100 µM											
CN(C)CCN1N=Nc2cccc3cccc1c23	> 100 µM	> 100 µM	> 100 µM	> 100 µM	> 100 µM	> 100 µM	> 100 µM	> 64.3 µM	> 100 µM											
Cc1cc(S(=O)(=O)Nc2nnc(-c3ccco3)c(-c3ccco3)n2)c(SCc2ccccc2)cc1Cl	41.2 µM	43.3 µM	67.6 µM	71.1 µM	53.3 µM			61.4 µM	> 100 µM	34.7 µM	20.1 µM	21.1 µM	26.6 µM	25.5 µM		18.4 µM	25.9 µM	29.7 µM	64.9 µM	
O=[N+]([O-])c1ccc2c(c1)OCCOCCOc1ccc([N+](=O)[O-])cc1OCCOCCO2	> 100 µM	> 100 µM	> 100 µM	> 100 µM	> 100 µM	> 100 µM	> 100 µM	> 100 µM	> 100 µM											
Cc1cc(N(CCC#N)CCC#N)ccc1N=Nc1ccccc1[N+](=O)[O-]	> 100 µM	> 100 µM	> 100 µM	> 100 µM	> 100 µM	> 100 µM	> 100 µM		> 100 µM											
